What was measured:
[1] = target: T1, recombinant human PARP (Homo sapiens, UniProt P09874); experiment: PARP enzyme activity inhibitory action (3H-NAD poly ADP-ribosylation, filter assay); assay type: biochemical; settings: 25° C., 15 min
T1 construct: purchased Trevigen 4667-02X
Procedure: After incubation at 25° C. for 15 min., the reaction was stopped with 20% trichloroacetic acid, and the resulting acid insoluble fraction was adsorbed to a GF/B filter. The filter was washed several times with 5% trichloroacetic acid, and the radiation dose on the filter was measured with a liquid scintillation counter.

[2] = Determination of stability in physiological saline at room temperature (residual ratio by HPLC); assay type: physicochemical; settings: for Residual rate (%) under non-shielding 7 days later / Residual rate (%) under shielding 7 days later: day 7; for Residual rate (%) under non-shielding 11 days later / Residual rate (%) under shielding 11 days later: day 11
Procedure: Each compound was dissolved in physiological saline to give solutions having a concentration of 1.0 mg/mL or 10 mg/mL. They were preserved at room temperature, under shielding or non-shielding and the residual ratio at day 7 and day 11 was measured by HPLC. […]
column: Inertsil ODS3V (GL Science Inc.)
Mobile phase: methanol: 0.01 mol/L aqueous ammonium acetate solution detection wavelength: 254 nm

[3] = 1.0 mg/mL in physiological saline
[4] = 10 mg/mL in physiological saline

T1 sequence (P09874 whole entry): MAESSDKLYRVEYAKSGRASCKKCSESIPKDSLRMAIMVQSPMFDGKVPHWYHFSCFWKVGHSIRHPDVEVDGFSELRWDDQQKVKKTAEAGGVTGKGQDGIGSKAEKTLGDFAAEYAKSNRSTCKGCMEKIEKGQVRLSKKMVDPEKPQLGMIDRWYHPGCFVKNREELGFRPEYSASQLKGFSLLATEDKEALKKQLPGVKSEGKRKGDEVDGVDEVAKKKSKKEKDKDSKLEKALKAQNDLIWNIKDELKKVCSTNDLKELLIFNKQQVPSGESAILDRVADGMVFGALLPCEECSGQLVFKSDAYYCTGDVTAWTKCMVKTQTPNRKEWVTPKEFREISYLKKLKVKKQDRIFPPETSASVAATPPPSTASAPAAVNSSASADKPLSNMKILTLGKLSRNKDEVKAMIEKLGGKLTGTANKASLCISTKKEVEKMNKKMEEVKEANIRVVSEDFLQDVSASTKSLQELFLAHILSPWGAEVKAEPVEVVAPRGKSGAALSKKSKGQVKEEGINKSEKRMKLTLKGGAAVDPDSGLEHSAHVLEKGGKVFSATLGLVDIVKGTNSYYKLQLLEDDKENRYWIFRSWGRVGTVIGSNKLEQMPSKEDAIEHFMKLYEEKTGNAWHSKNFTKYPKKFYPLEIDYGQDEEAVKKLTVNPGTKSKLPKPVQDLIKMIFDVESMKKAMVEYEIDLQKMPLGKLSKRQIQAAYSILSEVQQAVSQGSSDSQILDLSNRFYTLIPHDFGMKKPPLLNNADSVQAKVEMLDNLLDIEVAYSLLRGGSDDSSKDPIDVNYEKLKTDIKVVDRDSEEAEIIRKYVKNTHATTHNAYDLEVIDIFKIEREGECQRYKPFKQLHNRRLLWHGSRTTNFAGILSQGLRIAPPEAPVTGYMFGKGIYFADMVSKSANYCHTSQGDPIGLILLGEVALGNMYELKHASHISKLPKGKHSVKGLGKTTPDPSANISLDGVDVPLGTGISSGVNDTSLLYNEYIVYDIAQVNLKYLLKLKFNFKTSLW

Cc1cccc2c(=O)[nH]c(CCN3CCC[C@@H]3CO)cc12 [Ex. 36a, (R)-3-[2-(2-hydroxymethylpyrrolidin-1-yl)ethyl]-5-methyl-2H-isoquinolin-1-one]
IC50 [1]: 29 nM
Residual rate (%) under non-shielding 7 days later [2, 3]: ≈100%
Residual rate (%) under non-shielding 11 days later [2, 3]: ≈100%
Residual rate (%) under shielding 7 days later [2, 3]: ≈100%
Residual rate (%) under shielding 11 days later [2, 3]: ≈100%
Residual rate (%) under non-shielding 7 days later [2, 4]: ≈100%
Residual rate (%) under non-shielding 11 days later [2, 4]: ≈100%
Residual rate (%) under shielding 7 days later [2, 4]: ≈100%
Residual rate (%) under shielding 11 days later [2, 4]: ≈100%

Cc1cccc2c(=O)[nH]c(C3CCN(CCO)C3)cc12 (single isomer, unassigned; (-)) [Ex. 37a, (−)-3-[1-(2-hydroxylethyl)pyrrolidin-3-yl]-5-methyl-2H-isoquinolin-1-one]
IC50 [1]: 20 nM
melting point: 137.3 to 138.6 °C

O=c1[nH]c(C2CCN(CCO)CC2)cc2ccccc12 [Ex. 9a, 3-[1-(2-hydroxyethyl)piperidin-4-yl]-2H-isoquinolin-1-one]
IC50 [1]: 44 nM

Cc1cccc2c(=O)[nH]c(CCN3CCC[C@@H](O)C3)cc12 [Example 35a, (R)-3-[2-(3-hydroxypiperidin-1-yl)ethyl]-5-methyl-2H-isoquinolin-1-one]
melting point: 180 to 181 °C

Cc1cccc2c(=O)[nH]c(C3CCN(CCO)CC3)cc12 [Ex. 2a, 3-[1-(2-hydroxyethyl)piperidin-4-yl]-5-methyl-2H-isoquinolin-1-one]
IC50 [1]: 17 nM
Residual rate (%) under non-shielding 7 days later [2, 3]: ≈100%
Residual rate (%) under non-shielding 11 days later [2, 3]: ≈100%
Residual rate (%) under shielding 7 days later [2, 3]: ≈100%
Residual rate (%) under shielding 11 days later [2, 3]: ≈100%
Residual rate (%) under non-shielding 7 days later [2, 4]: ≈100%
Residual rate (%) under non-shielding 11 days later [2, 4]: ≈100%
Residual rate (%) under shielding 7 days later [2, 4]: ≈100%
Residual rate (%) under shielding 11 days later [2, 4]: ≈100%

Cc1cccc2c(=O)[nH]c(CCCN3CCC(O)C3)cc12 (stereo not shown) [Ex. 4a, 3-[3-(3-hydroxypyrrolidin-1-yl)propyl]-5-methyl-2H-isoquinolin-1-one]
IC50 [1]: 46 nM

Cc1cccc2c(=O)[nH]c(CCN3CCC(O)C3)cc12 (stereo not shown) [Ex. 5a, 3-[2-(3-hydroxypyrrolidin-1-yl)ethyl]-5-methyl-2H-isoquinolin-1-one]
IC50 [1]: 50 nM

Cc1cccc2c(=O)[nH]c(C3CCN(CCO)C3)cc12 (stereo not shown) [Ex. 28a, 3-[1-(2-hydroxyethyl)pyrrolidin-3-yl]-5-methyl-2H-isoquinolin-1-one]
IC50 [1]: 35 nM

Cc1cccc2c(=O)[nH]c(C3CCN(CCO)C3)cc12 (single isomer, unassigned; (+)) [Ex. 38a, (+)-3-[1-(2-hydroxylethyl)pyrrolidin-3-yl]-5-methyl-2H-isoquinolin-1-one]
IC50 [1]: 29 nM
melting point: 137 to 138.6 °C

Cc1cccc2c(=O)[nH]c(CCN3CCCC(O)C3)cc12 (stereo not shown) [Example 32a, 3-[2-(3-hydroxypiperidin-1-yl)ethyl]-5-methyl-2H-isoquinolin-1-one]
melting point: 184 to 185 °C

Cc1cccc2c(=O)[nH]c(CCN3CC[C@H](O)C3)cc12 [Ex. 34a, (S)-3-[2-(3-hydroxypyrrolidin-1-yl)ethyl]-5-methyl-2H-isoquinolin-1-one]
IC50 [1]: 34 nM
melting point: 176 to 178 °C

Cc1cccc2c(=O)[nH]c(CCN3CC[C@@H](O)C3)cc12 [Ex. 1a, (R)-3-[2-(3-hydroxypyrrolidin-1-yl)ethyl]-5-methyl-2H-isoquinolin-1-one]
IC50 [1]: 39 nM
Residual rate (%) under non-shielding 7 days later [2, 3]: ≈100%
Residual rate (%) under non-shielding 11 days later [2, 3]: ≈100%
Residual rate (%) under shielding 7 days later [2, 3]: ≈100%
Residual rate (%) under shielding 11 days later [2, 3]: ≈100%
Residual rate (%) under non-shielding 7 days later [2, 4]: ≈100%
Residual rate (%) under non-shielding 11 days later [2, 4]: ≈100%
Residual rate (%) under shielding 7 days later [2, 4]: ≈100%
Residual rate (%) under shielding 11 days later [2, 4]: ≈100%

Cc1cccc2c(=O)[nH]c(C3CCN(CCCO)CC3)cc12 [Example 23a, 5-methyl-3-[1-(3-hydroxypropyl)piperidin-4-yl]-2H-isoquinolin-1-one]
melting point: 197 to 199 °C

— patent publication US7812178B2, “Isoquinoline compound and pharmaceutical use thereof” (Mitsubishi Tanabe Pharma Corporation, priority 2002, dated 2010)
